Source: patent publication US10894792B2, “Pesticidally active heterocyclic derivatives with sulfur containing substituents” (SYNGENTA PARTICIPATIONS AG, priority 2017, dated 2021)

What was measured:
Format in all cases: in vivo
Euschistus heros = assay: Activity against Euschistus heros (neotropical brown stink bug); conditions: 120 h, application rate of 200 ppm, sprayed soybean leaf, N-2 nymphs, 5 days after infestation, read-out: effect in at least one of the two categories (mortality or growth inhibition)
Method: Soybean leaf on agar in 24-well microtiter plates were sprayed with aqueous test solutions prepared from 10′000 ppm DMSO stock solutions. After drying the leaf were infested with N-2 nymphs. The samples were assessed for mortality and growth inhibition in comparison to untreated samples 5 days after infestation.

Myzus persicae [1] = assay: Activity against Myzus persicae (green peach aphid), roots of pea seedlings in test solution; conditions: 144 h, test rate of 24 ppm, roots of infested pea seedlings in test solution, 6 days
Method: Roots of pea seedlings infested with an aphid population of mixed ages were placed directly in the aqueous test solutions prepared from 10′000 DMSO stock solutions. The samples were assessed for mortality 6 days after placing seedlings in test solutions.

Myzus persicae [2] = assay: Activity against Myzus persicae (green peach aphid), sprayed sunflower leaf discs; conditions: foliar, 144 h, application rate of 200 ppm, aphid population of mixed ages, 6 days after infestation
Method: Sunflower leaf discs were placed on agar in a 24-well microtiter plate and sprayed with aqueous test solutions prepared from 10′000 ppm DMSO stock solutions. After drying, the leaf discs were infested with an aphid population of mixed ages. The samples were assessed for mortality 6 days after infestation.

Bemisia tabaci = assay: Activity against Bemisia tabaci (cotton white fly); conditions: foliar, 144 h, application rate of 200 ppm, sprayed cotton leaf discs, adult white flies, 6 days after incubation
Method: Cotton leaf discs were placed on agar in 24-well microtiter plates and sprayed with aqueous test solutions prepared from 10′000 ppm DMSO stock solutions. After drying the leaf discs were infested with adult white flies. The samples were checked for mortality 6 days after incubation.

Plutella xylostella = assay: Activity against Plutella xylostella (diamond back moth), artificial diet; conditions: 120 h, application rate of 200 ppm, L2 larvae on artificial diet, 5 days after infestation, read-out: effect in at least one of the two categories (mortality or growth inhibition)
Method: 24-well microtiter plates with artificial diet were treated with aqueous test solutions prepared from 10′000 ppm DMSO stock solutions by pipetting. After drying, the plates were infested with L2 larvae (10 to 15 per well). The samples were assessed for mortality and growth inhibition in comparison to untreated samples 5 days after infestation.

Diabrotica Balteata = assay: Activity against Diabrotica balteata (corn root worm); conditions: 96 h, application rate of 200 ppm, sprayed maize sprouts, L2 larvae, 4 days after infestation, read-out: effect in at least one of the two categories (mortality or growth inhibition)
Method: Maize sprouts placed onto an agar layer in 24-well microtiter plates were treated with aqueous test solutions prepared from 10′000 ppm DMSO stock solutions by spraying. After drying, the plates were infested with L2 larvae (6 to 10 per well). The samples were assessed for mortality and growth inhibition in comparison to untreated samples 4 days after infestation.

[3] = system: Frankliniella occidentalis; assay: Activity against Frankliniella occidentalis (western flower thrips); conditions: foliar, 168 h, application rate of 200 ppm, sprayed sunflower leaf discs, population of mixed ages, 7 days after infestation
Method: Sunflower leaf discs were placed on agar in 24-well microtiter plates and sprayed with aqueous test solutions prepared from […] stock solutions. After drying the leaf discs were infested with a Frankliniella population of mixed ages. The samples were assessed for mortality 7 days after infestation.

CCS(=O)(=O)c1cc(C(=O)N=S2(=O)CCOCC2)cnc1-c1nc2cc(C(F)(F)F)ncc2n1C [Compound P2, 5-ethylsulfonyl-6-[3-methyl-6-(trifluoromethyl)imidazo[4,5-c]pyridin-2-yl]-N-(4-oxo-1,4-oxathian-4-ylidene)pyridine-3-carboxamide]
≥ 80%: percent effect (mortality or growth inhibition) at 200 ppm (Euschistus heros) | mortality at 24 ppm (Myzus persicae [1]) | mortality at 200 ppm (Myzus persicae [2])

CCS(=O)(=O)c1cc(C(=O)N=S(=O)(CC)CC)cnc1-c1nc2cc(C(F)(F)F)ncc2n1C [Compound P3]
≥ 80%: percent effect (mortality or growth inhibition) at 200 ppm (Euschistus heros) | mortality at 200 ppm (Bemisia tabaci) | percent effect (mortality or growth inhibition) at 200 ppm (Plutella xylostella) | mortality at 24 ppm (Myzus persicae [1]) | mortality at 200 ppm (Myzus persicae [2])

CCS(=O)(=O)c1cc(C(=O)N=S(C)C)cnc1-c1nc2cc(C(F)(F)F)ncc2n1C [Compound P5, N-(dimethyl-λ^4-sulfanylidene)-5-ethylsulfonyl-6-[3-methyl-6-(trifluoromethyl)imidazo[4,5-c]pyridin-2-yl]pyridine-3-carboxamide]
≥ 80%: percent effect (mortality or growth inhibition) at 200 ppm (Diabrotica Balteata) | percent effect (mortality or growth inhibition) at 200 ppm (Euschistus heros) | mortality at 200 ppm (Bemisia tabaci) | mortality at 24 ppm (Myzus persicae [1]) | mortality at 200 ppm (Myzus persicae [2])

CCS(=O)(=O)c1cc(C(=O)N=S(C)(C)=O)cnc1-c1nc2cc(C(F)(F)F)nnc2n1C [Compound P6, N-[dimethyl(oxo)-λ^6-sulfanylidene]-5-ethylsulfonyl-6-[7-methyl-3-(trifluoromethyl)imidazo[4,5-c]pyridazin-6-yl]pyridine-3-carboxamide]
≥ 80%: percent effect (mortality or growth inhibition) at 200 ppm (Diabrotica Balteata) | percent effect (mortality or growth inhibition) at 200 ppm (Euschistus heros) | mortality at 200 ppm (Bemisia tabaci) | percent effect (mortality or growth inhibition) at 200 ppm (Plutella xylostella) | mortality at 24 ppm (Myzus persicae [1]) | mortality at 200 ppm (Myzus persicae [2])

CCS(=O)(=O)c1cc(C(=O)N=S(C)(C)=O)ccc1-c1cn2cnc(C(F)(F)F)cc2n1 [Compound P7, N-[dimethyl(oxo)-λ^6-sulfanylidene]-3-ethylsulfonyl-4-[7-(trifluoromethyl)imidazo[1,2-c]pyrimidin-2-yl]benzamide]
≥ 80%: percent effect (mortality or growth inhibition) at 200 ppm (Diabrotica Balteata) | mortality at 200 ppm [3] | percent effect (mortality or growth inhibition) at 200 ppm (Plutella xylostella) | mortality at 24 ppm (Myzus persicae [1]) | mortality at 200 ppm (Myzus persicae [2])

CCS(=O)(=O)c1cc(C(=O)N=S(C)(=O)CC)cnc1-c1nc2cc(C(F)(F)F)nnc2n1C (stereo not shown) [Compound P9, N-(ethyl-methyl-oxo-λ^6-sulfanylidene)-5-ethylsulfonyl-6-[7-methyl-3-(trifluoromethyl)imidazo[4,5-c]pyridazin-6-yl]pyridine-3-carboxamide]
≥ 80%: percent effect (mortality or growth inhibition) at 200 ppm (Diabrotica Balteata) | mortality at 200 ppm [3] | percent effect (mortality or growth inhibition) at 200 ppm (Euschistus heros) | mortality at 200 ppm (Bemisia tabaci) | percent effect (mortality or growth inhibition) at 200 ppm (Plutella xylostella) | mortality at 24 ppm (Myzus persicae [1]) | mortality at 200 ppm (Myzus persicae [2])

CCS(CC)=NC(=O)c1cnc(-c2nc3cc(C(F)(F)F)ncc3n2C)c(S(=O)(=O)CC)c1 [Compound P10, N-(diethyl-λ^4-sulfanylidene)-5-ethylsulfonyl-6-[3-methyl-6-(trifluoromethyl)imidazo[4,5-c]pyridin-2-yl]pyridine-3-carboxamide]
≥ 80%: mortality at 200 ppm [3] | percent effect (mortality or growth inhibition) at 200 ppm (Euschistus heros) | mortality at 200 ppm (Bemisia tabaci) | percent effect (mortality or growth inhibition) at 200 ppm (Plutella xylostella) | mortality at 24 ppm (Myzus persicae [1]) | mortality at 200 ppm (Myzus persicae [2])

CCS(=O)(=O)c1cc(C(=O)N=S2(=O)CCC2)cnc1-c1nc2cc(C(F)(F)F)ncc2n1C [Compound P12, 5-ethylsulfonyl-6-[3-methyl-6-(trifluoromethyl)imidazo[4,5-c]pyridin-2-yl]-N-(1-oxothietan-1-ylidene)pyridine-3-carboxamide]
≥ 80%: mortality at 200 ppm (Bemisia tabaci) | percent effect (mortality or growth inhibition) at 200 ppm (Plutella xylostella) | mortality at 24 ppm (Myzus persicae [1]) | mortality at 200 ppm (Myzus persicae [2])

CCS(=O)(=O)c1cc(C(=O)N=S2(=O)CCOCC2)cnc1-c1nc2cc(C(F)(F)F)cnc2n1C [Compound P17, 5-ethylsulfonyl-6-[3-methyl-6-(trifluoromethyl)imidazo[4,5-b]pyridin-2-yl]-N-(4-oxo-1,4-oxathian-4-ylidene)pyridine-3-carboxamide]
≥ 80%: percent effect (mortality or growth inhibition) at 200 ppm (Euschistus heros) | percent effect (mortality or growth inhibition) at 200 ppm (Plutella xylostella) | mortality at 24 ppm (Myzus persicae [1]) | mortality at 200 ppm (Myzus persicae [2])

CCS(=O)(=O)c1cc(C(=O)N=S(=O)(CC)CC)cnc1-c1nc2cc(C(F)(F)F)nnc2n1C [Compound P18, N-[diethyl(oxo)-λ^6-sulfanylidene]-5-ethylsulfonyl-6-[7-methyl-3-(trifluoromethyl)imidazo[4,5-c]pyridazin-6-yl]pyridine-3-carboxamide]
≥ 80%: percent effect (mortality or growth inhibition) at 200 ppm (Diabrotica Balteata) | percent effect (mortality or growth inhibition) at 200 ppm (Euschistus heros) | mortality at 200 ppm (Bemisia tabaci) | percent effect (mortality or growth inhibition) at 200 ppm (Plutella xylostella) | mortality at 24 ppm (Myzus persicae [1]) | mortality at 200 ppm (Myzus persicae [2])

CCS(=O)(=O)c1cc(C(=O)N=S(=O)(CC)CC)cnc1-c1nc2cc(C(F)(F)F)cnc2n1C [Compound P19, N-[diethyl(oxo)-λ^6-sulfanylidene]-5-ethylsulfonyl-6-[3-methyl-6-(trifluoromethyl)imidazo[4,5-b]pyridin-2-yl]pyridine-3-carboxamide]
≥ 80%: mortality at 200 ppm [3] | percent effect (mortality or growth inhibition) at 200 ppm (Euschistus heros) | mortality at 200 ppm (Bemisia tabaci) | percent effect (mortality or growth inhibition) at 200 ppm (Plutella xylostella) | mortality at 24 ppm (Myzus persicae [1]) | mortality at 200 ppm (Myzus persicae [2])

CCS(=O)(=O)c1cc(C(=O)N=S(C)(C)=O)ccc1-c1nc2cc(C(F)(F)F)cnc2n1C [Compound P22, N-[dimethyl(oxo)-λ^6-sulfanylidene]-3-ethylsulfonyl-4-[3-methyl-6-(trifluoromethyl)imidazo[4,5-b]pyridin-2-yl]benzamide]
≥ 80%: percent effect (mortality or growth inhibition) at 200 ppm (Diabrotica Balteata) | mortality at 200 ppm [3] | percent effect (mortality or growth inhibition) at 200 ppm (Euschistus heros) | mortality at 200 ppm (Bemisia tabaci) | percent effect (mortality or growth inhibition) at 200 ppm (Plutella xylostella) | mortality at 24 ppm (Myzus persicae [1]) | mortality at 200 ppm (Myzus persicae [2])

CCS(=O)(=O)c1cc(C(=O)N=S(=O)(CC)CC)ccc1-c1nc2cc(C(F)(F)F)cnc2n1C [Compound P23, N-[diethyl(oxo)-λ^6-sulfanylidene]-3-ethylsulfonyl-4-[3-methyl-6-(trifluoromethyl)imidazo[4,5-b]pyridin-2-yl]benzamide]
≥ 80%: percent effect (mortality or growth inhibition) at 200 ppm (Diabrotica Balteata) | percent effect (mortality or growth inhibition) at 200 ppm (Euschistus heros) | mortality at 200 ppm (Bemisia tabaci) | percent effect (mortality or growth inhibition) at 200 ppm (Plutella xylostella) | mortality at 24 ppm (Myzus persicae [1]) | mortality at 200 ppm (Myzus persicae [2])
